From US9815851B2, “Pyrrolo carboxamides as modulators of orphan nuclear receptor RAR-related orphan receptor-gamma (RORγ, NR1F3) activity and for the treatment of chronic inflammatory and autoimmune diseases” (PHENEX PHARMACEUTICALS AG, priority 2011, dated 2017)
Where two headings read alike, the source gives them in different places.

What was measured:
[1] = target: T1, RORγ ligand binding domain (LBD) (Homo sapiens, UniProt P51449); test: TR-FRET Activity Assay (ligand sensing, RORγ-LBD / coactivator peptide interaction, LANCE); type: biochemical
T1 construct: made in house; host or cells: E. coli BL-21 (BL3), vector pDEST15
T1 sequence (P51449 269-508 limits assumed): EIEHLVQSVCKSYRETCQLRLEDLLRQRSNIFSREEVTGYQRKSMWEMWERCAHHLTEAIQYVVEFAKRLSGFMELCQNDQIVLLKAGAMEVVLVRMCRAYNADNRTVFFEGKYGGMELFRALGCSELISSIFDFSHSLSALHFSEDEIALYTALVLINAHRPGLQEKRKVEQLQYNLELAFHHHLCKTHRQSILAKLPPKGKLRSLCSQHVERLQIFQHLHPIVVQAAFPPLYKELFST

RORγ = target: T2, RORγ (UniProt P51449); test: RORγ Gal4 Reporter Gene Assay in 293T cells (firefly and renilla luciferase); type: cell-based, human
T2 sequence (P51449 1-518): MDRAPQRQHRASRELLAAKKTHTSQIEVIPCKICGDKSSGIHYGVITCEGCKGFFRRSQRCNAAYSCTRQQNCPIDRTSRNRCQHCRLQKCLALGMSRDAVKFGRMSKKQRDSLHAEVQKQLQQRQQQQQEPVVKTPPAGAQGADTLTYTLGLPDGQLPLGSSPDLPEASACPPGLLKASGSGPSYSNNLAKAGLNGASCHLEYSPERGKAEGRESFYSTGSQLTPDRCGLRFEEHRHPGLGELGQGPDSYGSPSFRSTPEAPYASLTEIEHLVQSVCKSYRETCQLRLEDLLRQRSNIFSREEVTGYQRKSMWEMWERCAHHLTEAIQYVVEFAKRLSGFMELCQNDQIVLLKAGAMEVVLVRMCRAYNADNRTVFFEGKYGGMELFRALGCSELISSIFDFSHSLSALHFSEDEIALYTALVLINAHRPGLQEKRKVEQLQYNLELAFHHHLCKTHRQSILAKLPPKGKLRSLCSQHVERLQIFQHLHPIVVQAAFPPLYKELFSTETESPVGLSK

[2] = first value of the cell FRET/FF/REN, TR-FRET activity assay, read-out: pIC50 (FRET) (converted)
[3] = second value of the cell, Gal4 reporter gene assay in 293T cells, firefly luciferase
[4] = third value of the cell, Gal4 reporter gene assay in 293T cells, renilla normalised luciferase

SMILES | IC50 [1, 2] | pIC50 (FF) (RORγ; [3]) | pIC50 (REN) (RORγ; [4]) | IC50 [1] | pIC50 (FF) (RORγ) | pIC50 (REN) (RORγ)
Cc1c(C(=O)NC2CCOCC2)cc(-c2ccc(CC(=O)NC(C)(C)C)c(C(F)(F)F)c2)n1CC1CCCCC1 [17/131] | 501 nM | 6.8 | 6.9 | – | – | –
Cc1c(C(=O)NCCc2noc(=O)[nH]2)cc(-c2ccc(S(=O)(=O)NC(C)(C)C)c(C(C)(C)C)c2)n1CC1CCCCC1 [17/331] | 1260 nM | 6.6 | 6.5 | – | – | –
Cc1c(C(=O)NCCc2nn[nH]n2)cc(-c2ccc(S(=O)(=O)NC(C)(C)C)c(C(F)(F)F)c2)n1CC1CCCCC1 [17/335] | 316 nM | 5.5 | 5.6 | – | – | –
Cc1c(C(=O)NCC2(C(=O)NCCCO)CCOCC2)cc(-c2cc(C(C)(C)C)c3c(c2)C2(CCO3)CC2)n1CC1CCCCC1 [17/34] | 1580 nM | 7.0 | 6.9 | – | – | –
Cc1c(C(=O)NCCCCCS(C)(=O)=O)cc(-c2cc(C(C)(C)C)c3c(c2)C2(CCO3)CC2)n1CC1CCCCC1 [17/4] | – | – | – | 631 nM | 6.2/6.7/6.7 | 6.2/6.7/6.7
Cc1c(C(=O)NC2CCOCC2)cc(-c2ccc(S(=O)(=O)NC(C)(C)C)c(C#N)c2)n1CC1CCCCC1 [17/158] | 794 nM | 6.1 | 6.2 | – | – | –
Cc1c(C(=O)NC2CCOCC2)cc(-c2cc(C(=O)NC(C)(C)C)cc(C(C)(C)O)c2)n1CC1CCCCC1 [17/322] | 3980 nM | 5.9 | 6.0 | – | – | –
Cc1c(C(=O)NCCCCCO)cc(-c2ccc(S(=O)(=O)NC(C)(C)C)c(C(C)(C)C)c2)n1CC1CCCCC1 [1/128] | 501 nM | 7.2 | 7.2 | – | – | –
COC(C)(C)c1cc(-c2c(Cl)c(C(=O)N[C@H]3C[C@H](C(=O)O)C3)c(C)n2CC2CCCCC2)cc(C2(C)CC2)c1 [29/2] | 2510 nM | 7.3 | 7.1 | – | – | –
CC(C)(CCNC(=O)c1cc(-c2cc(C(C)(C)C)cc(C3(C)CC3)c2)n(CC2CCCCC2)c1F)C(=O)O [20/5] | 794 nM | 7.0 | 7.0 | – | – | –
Cc1c(C(=O)NCCC(C)(C)C(=O)O)cc(-c2ccc(S(=O)(=O)N[C@@H](C)C(F)(F)F)c(C(F)(F)F)c2)n1CC1CCCCC1 [17/150] | 501 nM | 8.0 | 8.2 | – | – | –
Cc1c(C(=O)NCC2CC(C(=O)O)C2)cc(-c2cc(C(C)(C)O)cc(C3(C)CC3)c2)n1CC1CCCCC1 (stereo not drawn) [17/246] | 3980 nM | 6.1 | 6.2 | – | – | –
Cc1c(C(=O)NC2CCOCC2)cc(-c2ccc(S(=O)(=O)N3CCCC(C(F)(F)F)C3)c(C(C)(C)C)c2)n1CC1CCCCC1 (stereo not drawn) [17/102] | – | – | – | 251 nM | 6.6/6.8/6.9 | 6.6/6.8/6.9
Cc1c(C(=O)NC2CCOCC2)cc(-c2ccc(C(N)=O)c(C(C)(C)C)c2)n1CC1CCCCC1 [6/3] | – | – | – | 7940 nM | 5.1/5.9/5.7 | 5.1/5.9/5.7
Cc1c(C(=O)NC2COC2)cc(-c2cc(C(C)(C)C)cc(C(C)(C)C)c2)n1CC1Cc2ccccc2C1 [1/118] | 631 nM | 6.5 | 6.6 | – | – | –
Cc1c(C(=O)NCC2(CCO)COC2)cc(-c2cc(C(C)(C)C)cc(C(C)(C)C)c2)n1CC1CCCCC1 [17/44] | – | – | – | 631 nM | 6.2/6.1/6.1 | 6.2/6.1/6.1
Cc1c(C(=O)NC2CCOCC2)cc(-c2ccc(S(=O)(=O)NC(=O)C(C)(C)C)c(C(F)(F)F)c2)n1CC1CCCCC1 [17/258] | 7940 nM | < 4.7 | < 4.7 | – | – | –
Cc1c(C(=O)NCC2(O)CCS(=O)(=O)CC2)cc(-c2cc(C(C)(C)O)cc(C3(C)CC3)c2)n1CC1CCCCC1 [17/319] | 2000 nM | 6.5 | 6.6 | – | – | –

SMILES | IC50 [1, 2] | pIC50 (FF) (RORγ; [3]) | pIC50 (REN) (RORγ; [4]) | IC50 [1] | pIC50 (FF) (RORγ) | pIC50 (REN) (RORγ)
Cc1c(C(=O)NC2CCOCC2)cc(-c2ccc(C(C)(C)C(=O)NC(C)(C)C)c(C(F)(F)F)c2)n1CC1CCCCC1 [17/132] | 3980 nM | 6.3 | 6.2 | – | – | –
Cc1c(C(=O)NCCN2CCOCC2)cc(-c2cc(C(C)(C)C)c3c(c2)C2(CCO3)CC2)n1CC1CCCCC1 [1/41] | – | – | – | 501 nM | 6.3/6.9/7.0 | 6.3/6.9/7.0
CC(C)(C)NS(=O)(=O)c1ccc(-c2cc(C(=O)NC3CCOCC3)c(F)n2CC2CCCCC2)cc1C(F)(F)F [20/1] | 251 nM | 7.1 | 7.3 | – | – | –
Cc1c(C(=O)NCCC(C)(C)C(=O)O)cc(-c2ccc(S(=O)(=O)NC(C)(C)C)c(C(F)(F)F)c2)n1CC1CCCCC1 [17/222] | 631 nM | 7.4 | 7.5 | – | – | –
Cc1c(C(=O)NCC(C)(C)C(=O)NCCO)cc(-c2cc(C(C)(C)C)c3c(c2)C2(CCO3)CC2)n1CC1CCCCC1 [11/5] | – | – | – | 316 nM | 6.5/7.3/7.4 | 6.5/7.3/7.4
Cc1c(C(=O)NCC2(O)CCOCC2)cc(-c2ccc(S(=O)(=O)NC(C)(C)C)c(C(F)F)c2)n1CC1CCCCC1 [17/129] | – | – | – | 200 nM | 6.7/8.0/8.0 | 6.7/8.0/8.0
Cc1c(C(=O)NC2CCOCC2)cc(-c2ccc(S(=O)(=O)NC(C)(C)C)c3sccc23)n1CC1CCCCC1 [17/183] | 200 nM | 7.9 | 8.1 | – | – | –
Cc1c(C(=O)NC2CCOCC2)cc(-c2ccc(S(=O)(=O)NC(C)(C)C)c(C(C)(C)C)c2)n1CC1CCCC1 [17/212] | – | – | – | 631 nM | 6.2/7.3/7.4 | 6.2/7.3/7.4
Cc1c(C(=O)NC2CCOCC2)cc(-c2ccc(S(=O)(=O)NC(C)(C)C)c(C(F)(F)F)c2)n1CC1CCCCC1 [17/97] | 126 nM | 8.0 | 8.0 | – | – | –
Cc1c(C(=O)NCC2(C(N)=O)CCOCC2)cc(-c2cc(C(C)(C)C)cc(C3(C)CC3)c2)n1CC1CCCCC1 [17/62] | 316 nM | 8.3 | 8.3 | – | – | –
Cc1c(C(=O)NCCC(=O)O)cc(-c2cc(C(C)(C)C)cc(C(C)(C)C)c2)n1CC1CCCCC1 [1/68] | 1580 nM | 6.7 | 6.8 | – | – | –
Cc1c(C(=O)NC2CCOCC2)cc(-c2ccc(S(=O)(=O)NC(C)(C)C)c(F)c2)n1CC1CCCCC1 [17/238] | 1000 nM | 6.9 | 6.7 | – | – | –
Cc1c(C(=O)NC2CCOCC2)cc(-c2ccc(S(=O)(=O)NC(C)(C)CF)c(C(F)(F)F)c2)n1CC1CCCCC1 [18/5] | – | – | – | 631 nM | 6.2/7.5/7.5 | 6.2/7.5/7.5
Cc1c(C(=O)NC2COC2)cc(-c2cc(C(C)(C)C)c(F)c(C(C)(C)C)c2)n1CC1CCCCC1 [1/77] | 200 nM | 6.9 | 7.0 | – | – | –
Cc1c(C(=O)NCCN(C)C)cc(-c2cc(C(C)(C)C)cc(C(C)(C)C)c2)n1CC1CCCCC1 [1/56] | – | – | – | 3160 nM | 5.5/<4.7/<4.7 | 5.5/<4.7/<4.7
Cc1c(C(=O)NC2(C)CCOCC2)cc(-c2ccc(S(=O)(=O)NC(C)(C)C)c(C(F)(F)F)c2)n1CC1CCCCC1 [17/209] | – | – | – | 200 nM | 6.7/7.3/7.6 | 6.7/7.3/7.6
Cc1c(C(=O)NC2CC(=O)C2)cc(-c2cc(C(C)(C)C)c3c(c2)C2(CCO3)CC2)n1CC1CCCCC1 [17/21] | – | – | – | 631 nM | 6.2/7.0/6.9 | 6.2/7.0/6.9
